Experimental data from US20100237530A1, “COMPRESSED PREPARATION” (Daiichi Sankyo Company, Limited, priority 2006, published 2010).

Test: Dissolution Test (Paddle Method), Method 2 of the Japanese Pharmacopoeia 14th Revised Edition
Type: physicochemical
Conditions: dissolution rate of olmesartan medoxomil, paddle 50 revolutions per minute, 900 mL JP-2, absorptiometry, average of two tablets
Description: Dissolution properties were measured for the drug products as obtained in the Examples and Comparative Examples by the following method, and the results are shown in the Table.
Testing was carried out in accordance with Method 2 of the Dissolution Test (Paddle Method) described in the 14th Revised Edition of the Japanese Pharmacopoeia, at the paddle revolution speed of 50 revolutions per minute and using 900 mL of Japanese Pharmacopoeia Solution 2 (JP-2) for the test solution. The test solution was sampled at 30 minutes and 60 minutes after the start of testing, and the dissolution rate of olmesartan medoxomil was measured by absorptiometry. [Toyama Sangyo Co., Ltd.: DISSOLUTION TESTER NTR-6000, Shimadzu Corporation: SPECTROPHOTOMETER UV-1600] Tests were carried out for two tablets, and average values are shown.

Dissolution rate (%) After 30 minutes (sampled at 30 minutes): 60.0% | Dissolution rate (%) After 60 minutes (sampled at 60 minutes): 68.4%
Compound: CCCc1nc(C(C)(C)O)c(C(=O)OCc2oc(=O)oc2C)n1Cc1ccc(-c2ccccc2-c2nnn[nH]2)cc1 [Comparative Example C-3, Olmesartan medoxomil]
